Laboratory results published in US20250297323A1, “METHODS OF USING LONG NON-CODING RNA-8 (TROLL-8) AS A TARGET FOR CANCER DETECTION AND TREATMENT” (H. LEE MOFFITT CANCER CENTER AND RESEARCH INSTITUTE, INC., priority 2022, published 2025).

T1: carnitine palmitoyltransferase 1A (CPT1A) (human, UniProt P50416 2-773)
T1 construct: Endogenous protein immunoprecipitated from cell lysate with anti-CPT1A antibody (15184-1-AP, Proteintech); also called FAO rate-limiting enzyme
T1 sequence (looked up): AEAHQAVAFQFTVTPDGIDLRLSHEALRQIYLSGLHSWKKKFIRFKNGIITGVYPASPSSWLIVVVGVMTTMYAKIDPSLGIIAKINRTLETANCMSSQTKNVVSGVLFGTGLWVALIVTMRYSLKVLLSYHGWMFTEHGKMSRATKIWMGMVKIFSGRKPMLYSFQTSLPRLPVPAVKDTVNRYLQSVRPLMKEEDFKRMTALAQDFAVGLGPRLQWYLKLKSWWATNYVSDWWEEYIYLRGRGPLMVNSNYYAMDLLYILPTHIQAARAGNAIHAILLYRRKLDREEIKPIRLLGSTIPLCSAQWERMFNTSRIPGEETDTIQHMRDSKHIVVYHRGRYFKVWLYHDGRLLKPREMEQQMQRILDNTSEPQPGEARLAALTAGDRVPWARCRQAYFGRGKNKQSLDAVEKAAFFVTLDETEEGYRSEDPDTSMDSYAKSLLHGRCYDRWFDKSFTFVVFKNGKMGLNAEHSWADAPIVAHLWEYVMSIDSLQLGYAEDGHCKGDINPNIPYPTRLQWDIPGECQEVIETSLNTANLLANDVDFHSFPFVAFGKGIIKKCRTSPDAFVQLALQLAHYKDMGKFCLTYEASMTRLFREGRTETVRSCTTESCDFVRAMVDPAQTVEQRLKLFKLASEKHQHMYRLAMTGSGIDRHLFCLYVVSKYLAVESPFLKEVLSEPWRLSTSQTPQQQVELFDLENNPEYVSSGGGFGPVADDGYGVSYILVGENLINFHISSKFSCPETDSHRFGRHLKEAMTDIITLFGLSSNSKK

B1: ACAT1, the acetyl-CoA acetyltransferase 1 protein (enzyme, human, UniProt P24752 34-427, looked up)
chain: VSKPTLKEVVIVSATRTPIGSFLGSLSLLPATKLGSIAIQGAIEKAGIPKEEVKEAYMGNVLQGGEGQAPTRQAVLGAGLPISTPCTTINKVCASGMKAIMMASQSLMCGHQDVMVAGGMESMSNVPYVMNRGSTPYGGVKLEDLIVKDGLTDVYNKIHMGSCAENTAKKLNIARNEQDAYAINSYTRSKAAWEAGKFGNEVIPVTVTVKGQPDVVVKEDEEYKRVDFSKVPKLKTVFQKENGTVTAANASTLNDGAAALVLMTADAAKRLNVTPLARIVAFADAAVEPIDFPIAPVYAASMVLKDVGLKKEDIAMWEVNEAFSLVVLANIKMLEIDPQKVNINGGAVSLGHPIGMSGARIVGHLTHALKQGEYGLASICNGGGGASAMLIQKL
notes: Endogenous protein co-immunoprecipitated with CPT1A from cell lysate; also called acetyltransferase ACAT1

Key:
CPT1A = assay: LC-MS of carnitine and fatty acyl-carnitine to reflect CPT1A activity; assay type: cell-based, human
Procedure: 1.5×10^6 CA1D cells were transfected with either siNT (negative control) or siTROLL-8. 48 h after the transfection, the cells were collected and washed 2-3 times with ice-cold PBS. To analyze global metabolite abundances regulated by TROLL-8, an aliquot of the internal standard mixture was added into siNT and siTROLL-8 cell samples for untargeted metabolomics analysis. The internal standards were obtained from Cambridge Isotope Labs and include the following labelled compounds: Glucose (2,3,4,5,6-^13C5), D-Glucose-6-phosphate (U-^13C6), D-Fructose-1,6-bisphosphate (U-^13C6), L-Serine (^13C3), Glycine (1,2-^13C2), L-Cysteine (3,3-D2), Phosphoenol Pyruvate (2,3-^13C2), Lactate (3,3,3-D3), Pyruvate (D3), Acetyl-1,2-^13C2 CoA, Citric Acid (2,2,4,4-D4), Alpha-Ketoglutaric Acid (1,2,3,4-^13C4), Succinic Acid (D4), Fumaric Acid (D4), DL-Malic Acid (2,3,3-D3), D-Fructose-6-phosphate (U-^13C6). 1 ml of precooled 80% methanol extraction solvent (kept in the −80° C. freezer at least 1 h prior to extraction) was added to the sample for protein precipitation. After addition of the extraction solvent, the samples were vortexed and centrifuged at 18,800×g (Microfuge 22R, Beckman Coulter) at 0° C. for 10 min. Then, the samples were incubated for 30 min in a −80° C. freezer to increase metabolite extraction. After incubation, the samples were immediately centrifuged at 18,800×g at 4° C. for 10 min. Then the supernatant was transferred to a new microcentrifuge tube for drying in SpeedVac vacuum concentrator (Thermo Fisher Scientific). The protein pellet was resolubilized using aqueous 20 mM HEPES with 8M urea for Bradford Assay to measure the protein concentration. Dried metabolites were re-dissolved in 20 μl aqueous 80% methanol. Ultra-high performance liquid chromatography-high resolution mass spectrometry (UHPLC-HRMS) was performed using a Vanquish UHPLC interfaced with a Q Exactive HF quadrupole-orbital ion trap mass spectrometer (Thermo, San Jose, CA). Chromatographic separation was performed using a SeQuant ZIC-pHILIC guard column (2.1 mm ID×20 mm length, 5 μm particle size) and a SeQuant ZIC-pHILIC LC column (2.1 mm ID×150 mm length, 5 μm particle size, MilliporeSigma, Burlington, MA). Mobile phase A was aqueous 10 mM ammonium carbonate and 0.05% ammonium hydroxide, and mobile phase B was 100% acetonitrile. The gradient program included the following steps: start at 80% B, a linear gradient from 80 to 20% B over 13 min, stay at 20% B for 2 min, return to 80% B in 0.1 min, and re-equilibration for 4.9 min for a total run time of 20 min. The flow rate was set to 0.250 ml/min. The autosampler was cooled to 5° C. and the column temperature was set to 30° C. Sample injection volume was 2 μl for both positive ion mode and negative ion mode electrospray ionization. Full MS was performed in positive and negative mode separately detecting ions from m/z 65 to m/z 900. MZmine software, version 3.39, was used to identify and quantify metabolites by matching by m/z and RT to an in-house library. Data normalization was carried out using the protein concentration. For acetyl-CoA detection, spike heavily labelled internal standards (3 labelled Acyl CoAs) into each sample. For fatty acyl-carnitine detection, spike heavily labelled internal standards (3 labelled Acyl Carnitine) into each sample. An aliquot (300 μl) of cold 80% methanol extraction solvent (leave in −80° C. at least one hour prior to the experiments) is added to the sample for protein precipitation. After vortexing, the samples are then incubated in the −80° C. freezer for 30 mins, followed by centrifugation at 18,800×g (Microfuge 22R, Beckman Coulter) at 0° C. for 10 mins. Then the supernatant is transferred to new Eppendorf tubes for drying in SpeedVac vacuum concentrator (Thermo Fisher Scientific). The protein pellet is left behind and proceeds for protein concentration measurement by Bradford Assay. […]

CA1D cells = assay: Seahorse XF Cell Mito Stress Test (oxygen consumption rate); assay type: cell-based, human; conditions: siTROLL-8 vs siNT CA1D cells; OCR normalized to groups without inhibitor; Etomoxir 4.0 μM, UK5099 2.0 μM, BPTES 3.0 μM
Procedure: The oxygen consumption rate (OCR) of cells was measured on the Seahorse XF96 extracellular flux analyzer (Agilent Technologies) using a Seahorse XF Cell Mito Stress Test kit in accordance with the manufacturer's instructions. Briefly, siNT or siTROLL-8 CA1D cells (3.0×10^4 cells/well) were seeded in 6 wells (technical replicates) of a 96 well Agilent Seahorse XF Cell Culture Microplate in full growth medium and attached overnight. Hydrate a sensor cartridge in Seahorse XF Calibrant in a non-CO2 incubator at 37° C. overnight. On the day of assay, cells were carefully washed and the growth medium was replaced with prewarmed Seahorse XF base medium (Agilent Technologies) supplemented with 5 mM HEPES, 10 mM glucose, 1 mM sodium pyruvate, and 2 mM L-Glutamine, pH 7.4). The plates of cells in assay medium were incubated in a non-CO2 incubator at 37° C. for 1 h. Prepare compound stock solutions for loading sensor cartridge ports and load the XF96 sensor cartridge to Seahorse XF96 analyzer. Take three basal measurements and determine oxygen and proton concentration in the medium. […]

[1] = molecular target: T1, carnitine palmitoyltransferase 1A …; assay: co-IP with anti-CPT1A antibody from CA1D cell lysate, western blot
Text: Beyond its classical activity, ACAT1 acetylates the Pyruvate Dehydrogenase Phosphatase Catalytic Subunit1 (PDP1) and the Pyruvate Dehydrogenase E1 Subunit Alpha1 (PDHA1) in the Pyruvate Dehydrogenase Complex (PDC), which negatively regulates the activity of Pyruvate Dehydrogenase (PDH) in glycolysis and tumor growth. […] In the experiment, we have the following groups: whole cell lysate (5% of the total input); cell lysate from either CA1D cells, or siNT/siTROLL-8 treated CA1D cells immunoprecipitated with CPT1A specific antibody; or the same cell lysate immunoprecipitated with normal IgG control antibody. […] While there is no change in the expression level of either CPT1A or ACAT1 in the whole cell lysate, CPT1A specifically immunoprecipitated more ACAT1 (by around 2-fold) in siTROLL-8 CA1D cells compared to non-treated cells, confirming the LC-MS discovery that TROLL-8 depletion increased the physical interaction between CPT1A and ACAT1.
4 mg cell lysate of CA1D cells were prepared using RIPA buffer and used to test the interaction between CPT1A and ACAT1. 4 mg cell lysate of either CA1D cells transfected with siRNAs for TROLL-8, or with the non-targeting siRNA as a negative control, were used to test the change in the interaction between CPT1A and ACAT1. The CoIP assay was performed according to the protocol provided with the anti-CPT1A primary antibody (15184-1-AP). […]

[2] = molecular target: T1, carnitine palmitoyltransferase 1A …; assay: co-IP with anti-CPT1A antibody from CA1D cell lysate, LC-MS/MS proteomics
Procedure: 4 mg cell lysate of CA1D cells were prepared using RIPA buffer and used to test the interaction between CPT1A and ACAT1. 4 mg cell lysate of either CA1D cells transfected with siRNAs for TROLL-8, or with the non-targeting siRNA as a negative control, were used to test the change in the interaction between CPT1A and ACAT1. The CoIP assay was performed according to the protocol provided with the anti-CPT1A primary antibody (15184-1-AP). Add anti-CPT1A primary antibody (15184-1-AP, Proteintech) or negative control normal rabbit IgG (#2729, Cell Signaling) corresponding to the primary antibody source to the lysate with gentle rocking at 4° C. for 12 h. 50 ul Protein G Dynabeads slurry were added to capture the immunocomplex with gentle rocking at 4° C. for 12 h. Collect the beads with magnetic stand and discard the supernatant. Wash the beads 3 times with 1 ml 0.2% TBST, collect the beads with magnetic stand and discard the supernatant. […] The interaction was then detected via western blot using the following primary antibodies: CPT1A (ab128568, Abcam), ACAT1 (ab168342, Abcam), and beta-actin (A5441, Sigma-Aldrich).
1.5×10⁶ CA1D cells were transfected with either siNT (negative control) or siTROLL-8. […] The SDS-PAGE gel bands or the immunoprecipitated proteins were extracted, digested with trypsin, and analyzed via LC-MS/MS and the identified peptides are listed in Supplementary Data 1. […]

[3] = CA1D cells with shCPT1A and CPT1A WT/KQ/KR overexpression, mutants compared to CPT1A overexpression

Row | Molecule | fatty acylcarnitine level (CPT1A; [3]) | free carnitine level (CPT1A; [3]) | long-chain fatty acylcarnitine levels (CPT1A; CA1D cells, 10 μM Etomoxir) | medium-chain fatty acylcarnitine levels (CPT1A; CA1D cells, 10 μM Etomoxir) | short-chain fatty acylcarnitine levels (CPT1A; CA1D cells, 10 μM Etomoxir) | level of carnitine (substrate for CPT1A activity) (CPT1A; CA1D cells, siNT, siTROLL-8, siNT+Eto, 10 μM Etomoxir) | impact of fuel oxidation inhibitor in basal respiration upon TROLL-8 depletion (CA1D cells) | fold change of ACAT1 immunoprecipitated by CPT1A (siTROLL-8 vs non-treated CA1D cells) [1] [fold] | fold change of co-immunoprecipitation with CPT1A (TROLL-8 depleted vs non-treated CA1D cells) [2] [fold]
1 | CCOC(=O)[C@@]1(CCCCCCOc2ccc(Cl)cc2)CO1 [Etomoxir] | reduced | augmented | significantly reduced | significantly reduced | significantly reduced | increased | increased the impact |  | 
2 | N#C/C(=C\c1cn(-c2ccccc2)c2ccccc12)C(=O)O [UK5099] |  |  |  |  |  |  | increased the impact |  | 
3 | B1 |  |  |  |  |  |  |  | ~2 | ~2
